Experimental data published in patent US5760001A, “Cytokine restraining agents and methods of use in pathologies and conditions associated with altered cytokine levels” (Trega Biosciences, Inc., priority 1995, dated 1998).
Where “and” joins values, the source holds several entries; their conditions need not be identical. Equal entries are not always repeated. Square brackets hold non-standard residues; d marks the D form. Peptide text beside a SMILES is read from it.

How the values were obtained:
TNF-α [1] = assay: Reduction of LPS-induced TNF levels in mice (IP dosing); format: in vivo; conditions: 150 μg/mouse IP before LPS 5 mg/kg IP; vs untreated control mice
Experimental: Balb/c female mice weighing approximately 20 g were placed into two groups, a control group and a treated group. Five mg/kg of LPS in 0.9% saline was administered by intraperitoneal (IP) injection into the control mice. Mice in the treated group were first injected IP with 30 μg EX-2 or 150 μg EX-3 in saline, then, one mn after EX-2 or EX-3 was administered, the mice received LPS as described for the control group.
Blood samples were collected from the orbital sinus of treated and control mice at various times up to four hr after LPS was administered. The plasma was separated by centrifugation at 3000×g for 5 min, then diluted with four volumes of 1× phosphate buffer saline (pH 7.4) containing 1% bovine serum albumin. A 100 μl sample of serum was assayed by ELISA for TNF-α (Genzyme; Cambridge Mass.).
The mean (±SEM) TNF-α level in six mice from each group was determined and the percent reduction in TNF levels was calculated.

adult female Balb/c mice [2] = assay: Carageenan-induced paw swelling; format: in vivo; conditions: 1 μg/mouse; measured at the 2 hr time point
Experimental: Carageenan-induced paw swelling was induced using a modification of the methods of Hiltz and Lipton, Peptides 11:979-982 (1990); Vinegar et al., Fed. Proc. 46:118-1.26 (1987); and Vinegar et al., J. Pharmacol. Expt. Therap. 166:96-103 (1969), each of which is incorporated herein by reference. Briefly, adult female Balb/c mice were anesthetized by IP injection of 7 mg/kg ketoamine and 0.6 mg/kg rompun. Foot pad thickness was measured using a spring loaded micrometer (Swiss Precision Instruments). Foot pad thickness was expressed in units of 1/100 inch. After baseline measurements were obtained, mice were injected into a hind foot pad with either 0.2 ml physiologic saline (control) or varying doses of EX-2 or EX-3 in 0.2 ml saline (treated). The first injection was followed immediately by injection of 0.02 ml of 0.15% κ-carageenan (Sigma Chemical Co.; St. Louis, Mo.).
Hind foot pad thickness was measured hourly for six hr, the change in thickness was determined and the percent reduction in swelling due to treatment with EX-2 was calculated.

adult female Balb/c mice [3] = assay: LPS-induced lethality (IP dosing); format: in vivo; conditions: 11 × 300 μg/mouse IP (3.3 mg), every 4 hr; 0.6 mg LPS; vs control mice
Experimental: These experiments were performed based on information reported by Rivier et al., Endocrinology 125:2800-2805 (1989), which is incorporated herein by reference. Adult female Balb/c mice were provided food and water ad libitum. Mice were injected IP every four hr for 40 hr with 30 to 300 μg EX-2, EX-3 or EX-4 in 0.2 ml saline (treated group) or with 0.2 ml saline, alone (control group) (10 mice per group). Immediately following the first injection, 0.6 mg LPS endotoxin in 0.2 ml saline was administered to each mouse. Following LPS injection, EX-2 or saline was administered to the treated mice or the control mice, respectively, every 4 hr for 36 hr.

female Balb/c mice = assay: Arachidonic acid-induced ear swelling; format: in vivo; conditions: 100 μg/mouse IP 30 min prior to AA; 60 min after AA application
Experimental: Experiments were performed using female Balb/c mice weighing 18-23 grams. Saline or 100 μg EX-2 or EX-3 was administered IP, 30 min prior to topical application of arachidonic acid (AA). A 10 μl pipet was used to apply 10 μl AA solution (100 mg/ml ethanol; Calbiochem-Novabiochem; San Diego Calif.) to the inner and outer surfaces of the right ear of each mouse. Ten μl ethanol, alone, was applied to the inner and outer surface of the left ear of each mouse.
Ear thickness was measured with a hand-held spring loaded caliper immediately before and 60 min after AA application. Increase in ear thickness was calculated by subtracting the change observed in the control ear from the change observed in AA-treated ear. The value for each group (saline and control) is the average of the swelling observed in the individual mice in each group. The percent reduction of swelling is based on the swelling observed in the saline control group.

Male Shelton rabbits = assay: Morphine-induced respiratory depression; format: in vivo; conditions: 10 + 20 + 20 μg/kg/rabbit iv; at end of experiment (80 min)
Experimental: Male Shelton rabbits (3-4 kg) were restrained and fitted around the thorax, just behind the front limbs, with a respiration transducer (Model F-RCT; Grass Instruments; Quincy Mass.). The transducer was connected to a grass polygraph via an EKG cable. An intravenous line was established for drug administration by cannulating the marginal ear vein using a 25G butterfly needle.
Rabbit breathing was allowed to stabilize, then. morphine sulfate (2 mg/kg in 0.5 ml saline) was administered by intravenous (iv) injection and respiratory rate and depth were monitored for 10 min. A second dose of morphine was administered, then, after 10 min, EX-2 or EX-3 (10 μg/kg in 0.5 ml saline) was administered, iv, and rabbits were monitored for 20 min. Two additional doses of EX-2 or EX-3 (20 μg/kg in 1.0 ml saline) were administered at 20 min intervals, i.e., 40 min and 60 min after the first morphine injection.
Results were calculated as the percent change from baseline values and are expressed as the difference of the mean value of the treated group minus the mean value of the control group at the end of the experiment (80 min).

TNF-α [4] = assay: LPS-induced TNF-α levels, oral (gavage) dosing; format: in vivo, mice
Experimental: The ability of orally administered cytokine restraining agents to reduce LPS-induced TNF-α levels also was examined. Balb/c female mice (20 g) were administered 150 μg or 300 μg EX-2, EX-3, EX-5 or EX-6 in 100 μl saline by gavage. Control mice received 100 μl saline, alone. One mn later, 0.1 mg LPS was administered by IP injection. Samples were collected and TNF-α levels were determined as described in Example III, above.
The mean TNF-α levels in the mice from each group (n=9-20) was determined and the percent reduction in TNF-α levels was calculated.

adult female Balb/c mice [5] = assay: LPS-induced lethality, oral (gavage) dosing; format: in vivo; conditions: control mice 0%
Experimental: The LPS-induced lethality studies were performed based on information reported by Rivier et al., supra, 1989. Adult female Balb/c mice were provided food and water ad libitum. Mice were administered 150 μg or 300 μg EX-2, EX-3, EX-5 or EX-6 in 100 μl saline by gavage every 4 hr for 40 hr (total doses of 1.65 mg and 3.3 mg, respectively). Control mice received 100 μl saline, alone. Immediately following the first dose of cytokines restraining agent or saline, 0.6 mg LPS in 0.2 ml saline was administered by IP injection.

[6] = 300 μg by gavage before 0.1 mg LPS IP

Structure (SMILES) | Reduction in TNF levels (TNF-α [1]) [%] | Inhibition of LPS-induced Lethality (increase in survival) (adult female Balb/c mice [3]) [%] | percent reduction in TNF-α levels (TNF-α [4]; [6]) [%] | also measured
CC(=O)N[C@H](C(=O)N[C@@H](CCC(N)=O)C(=O)N[C@@H](Cc1c[nH]cn1)C(=O)N[C@H](Cc1ccccc1)C(=O)N[C@@H](CCCNC(=N)N)C(=O)N[C@H](Cc1c[nH]c2ccccc12)C(=O)NCC(N)=O)C1CCCCC1 [EX-3, Ac-(cyclohexyl)Gly-Gln-His-(D)Phe-Arg-(D)Trp-Gly-NH2] | 56 | 86 | 40 | Reduction in Carageenan-induced Paw Swelling (adult female Balb/c mice [2]): 49%; Reduction in arachidonic acid-induced Ear Swelling (female Balb/c mice): 62%; Reduction in Morphine-induced Respiratory Depression (Male Shelton rabbits): 65%; percent reduction in TNF-α levels (TNF-α [4]; 150 μg by gavage before 0.1 mg LPS IP): 49%
CC(=O)N[C@H](Cc1ccccc1)C(=O)N[C@@H](CCCNC(=N)N)C(=O)N[C@H](Cc1c[nH]c2ccccc12)C(N)=O [EX-4, Ac-(D)Phe-Arg-(D)Trp-NH2] | 53 | 75 |  | 
CC(=O)N[C@@H](Cc1c[nH]cn1)C(=O)N[C@H](Cc1ccccc1)C(=O)N[C@@H](CCCNC(=N)N)C(=O)N[C@H](Cc1c[nH]c2ccccc12)C(=O)NCC(N)=O [EX-5, Ac-His-(D)Phe-Arg-(D)Trp-Gly-NH2] (Ac-H[dF]R[dW]G-NH2) |  |  | 44 | increase in survival (LPS-induced lethality) (adult female Balb/c mice [5]; 3.3 mg total (300 μg every 4 hr for 40 hr)): 63% and 44%
CC(=O)N[C@@H](Cc1c[nH]cn1)C(=O)N[C@H](Cc1ccccc1)C(=O)N[C@@H](CCCNC(=N)N)C(=O)N[C@H](Cc1c[nH]c2ccccc12)C(N)=O [EX-6, Ac-His-(D)Phe-Arg-(D)Trp-NH2] |  |  |  | increase in survival (LPS-induced lethality) (adult female Balb/c mice [5]; 1.65 mg total (150 μg every 4 hr for 40 hr)): 68%
